Measured values from patent US10947252B2, “Inhibitors of KEAP1-Nrf2 protein-protein interaction” (Janssen Pharmaceutica NV, priority 2018, dated 2021).

Key:
[1] = target: Kelch domain of human KEAP1 (321-624 aa) (Homo sapiens (Human), UniProt Q14145); assay: KEAP1 KELCH ThermoFluor binding assay; settings: KEAP Kelch […], 1,8-ANS, pH 7.0, average of results obtained, read-out: Tf Kd;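 also: Ligand-induced melting temperature shift of E. coli-expressed KEAP1 Kelch protein, Kd estimated from concentration-response curves of ΔTm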
[2] = test system: Glo-Response ARE-luc2P HEK293 cell line; assay: ARE luciferase reporter cell-based assay; settings: Homo sapiens, HEK293, 24 h, average of results obtained;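 also: luciferase signal tracks Nrf2 activation of the ARE once compounds disrupt KEAP1-Nrf2 binding, read with One-Glo reagent, DMSO serving as low control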

Sequence of Kelch domain of human KEAP1 (321-624 aa) (Q14145 321-624): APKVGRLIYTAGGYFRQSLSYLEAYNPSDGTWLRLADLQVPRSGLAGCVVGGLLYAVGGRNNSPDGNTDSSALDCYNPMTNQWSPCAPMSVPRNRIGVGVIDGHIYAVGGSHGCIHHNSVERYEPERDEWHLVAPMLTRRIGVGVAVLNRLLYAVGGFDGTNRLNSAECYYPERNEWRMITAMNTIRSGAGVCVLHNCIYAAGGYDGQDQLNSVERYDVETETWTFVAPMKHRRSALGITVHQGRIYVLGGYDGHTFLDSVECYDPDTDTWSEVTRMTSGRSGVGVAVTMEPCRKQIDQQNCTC

| SMILES | Kd [1] [nM] | EC50 [2] [nM] |
| --- | --- | --- |
| Cc1ccc([C@H](CC(=O)O)c2ccn3c(C(F)F)nnc3c2C)cc1CN1C[C@@H]2COCCN2c2ncccc2S1(=O)=O (single isomer, unassigned) [Example 458, (*S)-3-(3-(Difluoromethyl)-8-methyl-[1,2,4]triazolo[4,3-a]pyridin-7-yl)-3-(3-(((*R)-5,5-dioxido-7a,8,10,11-tetrahydro-[1,4]oxazino[3,4-d]pyrido[2,3-f][1,2,5]thiadiazepin-6(7H)-yl)methyl)-4-methylphenyl)propanoic Acid] | < 1 | 276 |
| Cc1ccc([C@@H](CC(=O)O)c2ccn3c(C(F)F)nnc3c2C)cc1CN1C[C@@H]2COCCN2c2ncccc2S1(=O)=O (single isomer, unassigned) [Example 459, (*R)-3-(3-(Difluoromethyl)-8-methyl-[1,2,4]triazolo[4,3-a]pyridin-7-yl)-3-(3-(((*R)-5,5-dioxido-7a,8,10,11-tetrahydro-[1,4]oxazino[3,4-d]pyrido[2,3-f][1,2,5]thiadiazepin-6(7H)-yl)methyl)-4-methylphenyl)propanoic Acid] | 1.19 | 203 |
| Cc1ccc([C@H](CC(=O)O)c2ccn3c(C(F)F)nnc3c2C)cc1CN1C[C@H]2COCCN2c2ncccc2S1(=O)=O (single isomer, unassigned) [Example 461, (*S)-3-(3-(Difluoromethyl)-8-methyl-[1,2,4]triazolo[4,3-a]pyridin-7-yl)-3-(3-(((*S)-5,5-dioxido-7a,8,10,11-tetrahydro-[1,4]oxazino[3,4-d]pyrido[2,3-f][1,2,5]thiadiazepin-6(7H)-yl)methyl)-4-methylphenyl)propanoic Acid] | 1.19 | 68.7 |
| Cc1ccc([C@@H](CC(=O)O)c2ccn3c(C(F)F)nnc3c2C)cc1CN1C[C@H]2COCCN2c2ncccc2S1(=O)=O (single isomer, unassigned) [Example 462, (*R)-3-(3-(Difluoromethyl)-8-methyl-[1,2,4]triazolo[4,3-a]pyridin-7-yl)-3-(3-(((*S)-5,5-dioxido-7a,8,10,11-tetrahydro-[1,4]oxazino[3,4-d]pyrido[2,3-f][1,2,5]thiadiazepin-6(7H)-yl)methyl)-4-methylphenyl)propanoic Acid] | 13.7 | 2930 |
| CC[C@@H]1CN(Cc2cc([C@@H](CC(=O)O)c3ccn4c(C(F)F)nnc4c3C)ccc2C)S(=O)(=O)c2cccnc2O1 (single isomer, unassigned) [Example 465, (*R)-3-(3-(Difluoromethyl)-8-methyl-[1,2,4]triazolo[4,3-a]pyridin-7-yl)-3-(3-(((R)-4-ethyl-1,1-dioxido-3,4-dihydro-2H-pyrido[2,3-b][1,4,5]oxathiazepin-2-yl)methyl)-4-methylphenyl)propanoic Acid] | < 1 | 154 |
| Cc1ccc([C@H](CC(=O)O)c2ccn3c(C(F)F)nnc3c2C)cc1CN1CC2(COC2)Oc2ccccc2S1(=O)=O (single isomer, unassigned) [Example 467, (*S)-3-(3-(Difluoromethyl)-8-methyl-[1,2,4]triazolo[4,3-a]pyridin-7-yl)-3-(3-((1,1-dioxidospiro[benzo[b][1,4,5]oxathiazepine-4,3′-oxetan]-2(3H)-yl)methyl)-4-methylphenyl)propanoic Acid] | < 1 | 79.3 |
| Cc1ccc([C@H](CC(=O)O)c2ccn3c(C(F)F)nnc3c2C)cc1CN1CC2(COC2)Oc2ncccc2S1(=O)=O (single isomer, unassigned) [Example 470, (*S)-3-(3-(Difluoromethyl)-8-methyl-[1,2,4]triazolo[4,3-a]pyridin-7-yl)-3-(3-((1′,1′-dioxidospiro[oxetane-3,4′-pyrido[2,3-b][1,4,5]oxathiazepin]-2′(3′H)-yl)methyl)-4-methylphenyl)propanoic Acid] | < 1 | 472 |
| Cc1ccc([C@@H](CC(=O)O)c2ccn3c(C(F)F)nnc3c2C)cc1CN1CC2(COC2)Oc2ncccc2S1(=O)=O (single isomer, unassigned) [Example 471, (*R)-3-(3-(Difluoromethyl)-8-methyl-[1,2,4]triazolo[4,3-a]pyridin-7-yl)-3-(3-((1′,1′-dioxidospiro[oxetane-3,4′-pyrido[2,3-b][1,4,5]oxathiazepin]-2′(3′H)-yl)methyl)-4-methylphenyl)propanoic Acid] | < 1 | 2630 |
| Cc1ccc([C@H](CC(=O)O)c2ccn3c(C(F)F)nnc3c2C)cc1CN1CC2(CC2)Oc2ncccc2S1(=O)=O (single isomer, unassigned) [Example 473, (*S)-3-(3-(Difluoromethyl)-8-methyl-[1,2,4]triazolo[4,3-a]pyridin-7-yl)-3-(3-((1′,1′-dioxidospiro[cyclopropane-1,4′-pyrido[2,3-b][1,4,5]oxathiazepin]-2′(3′H)-yl)methyl)-4-methylphenyl)propanoic Acid] | < 1 | 104 |
| Cc1ccc([C@@H](CC(=O)O)c2ccn3c(C(F)F)nnc3c2C)cc1CN1CC2(CC2)Oc2ncccc2S1(=O)=O (single isomer, unassigned) [Example 474, (*R)-3-(3-(Difluoromethyl)-8-methyl-[1,2,4]triazolo[4,3-a]pyridin-7-yl)-3-(3-((1′,1′-dioxidospiro[cyclopropane-1,4′-pyrido[2,3-b][1,4,5]oxathiazepin]-2′(3′H)-yl)methyl)-4-methylphenyl)propanoic Acid] | < 1 | 1580 |
| Cc1ccc([C@H](CC(=O)O)c2ccn3c(C(F)F)nnc3c2C)cc1CN1C[C@]2(C)CCCN2c2ncccc2S1(=O)=O (single isomer, unassigned) [Example 476, (*S)-3-(3-(Difluoromethyl)-8-methyl-[1,2,4]triazolo[4,3-a]pyridin-7-yl)-3-(4-methyl-3-(((*S)-7a-methyl-5,5-dioxido-7a,8,9,10-tetrahydropyrido[2,3-f]pyrrolo[2,1-d][1,2,5]thiadiazepin-6(7H)-yl)methyl)phenyl)propanoic Acid] | < 1 | 219 |
| Cc1ccc([C@@H](CC(=O)O)c2ccn3c(C(F)F)nnc3c2C)cc1CN1C[C@]2(C)CCCN2c2ncccc2S1(=O)=O (single isomer, unassigned) [Example 477, (*R)-3-(3-(Difluoromethyl)-8-methyl-[1,2,4]triazolo[4,3-a]pyridin-7-yl)-3-(4-methyl-3-(((*S)-7a-methyl-5,5-dioxido-7a,8,9,10-tetrahydropyrido[2,3-f]pyrrolo[2,1-d][1,2,5]thiadiazepin-6(7H)-yl)methyl)phenyl)propanoic Acid] | 2.61 | 1680 |
| Cc1ccc([C@@H](CC(=O)O)c2ccn3c(C(F)(F)F)nnc3c2C)nc1CN1C[C@@H]2CCCCN2c2ncccc2S1(=O)=O (single isomer, unassigned) [Example 479, (*S)-3-(6-(((*S)-5,5-Dioxido-7,7a,8,9,10,11-hexahydro-6H-dipyrido[2,1-d:2′,3′-f][1,2,5]thiadiazepin-6-yl)methyl)-5-methylpyridin-2-yl)-3-(8-methyl-3-(trifluoromethyl)-[1,2,4]triazolo[4,3-a]pyridin-7-yl)propanoic Acid] | < 1 | 48.8 |
| Cc1ccc([C@H](CC(=O)O)c2ccn3c(C(F)(F)F)nnc3c2C)nc1CN1C[C@@H]2CCCCN2c2ncccc2S1(=O)=O (single isomer, unassigned) [Example 480, (*R)-3-(6-(((*S)-5,5-Dioxido-7,7a,8,9,10,11-hexahydro-6H-dipyrido[2,1-d:2′,3′-f][1,2,5]thiadiazepin-6-yl)methyl)-5-methylpyridin-2-yl)-3-(8-methyl-3-(trifluoromethyl)-[1,2,4]triazolo[4,3-a]pyridin-7-yl)propanoic Acid] | < 1 | 252 |
| Cc1ccc([C@@H](CC(=O)O)c2ccn3c(C(F)(F)F)nnc3c2C)nc1CN1CC2(CC2)Oc2ncccc2S1(=O)=O (single isomer, unassigned) [Example 482, (*S)-3-(6-((1′,1′-Dioxidospiro[cyclopropane-1,4′-pyrido[2,3-b][1,4,5]oxathiazepin]-2′(3′H)-yl)methyl)-5-methylpyridin-2-yl)-3-(8-methyl-3-(trifluoromethyl)-[1,2,4]triazolo[4,3-a]pyridin-7-yl)propanoic Acid] | < 1 | 701 |
| Cc1ccc([C@H](CC(=O)O)c2ccn3c(C(F)(F)F)nnc3c2C)nc1CN1CC2(CC2)Oc2ncccc2S1(=O)=O (single isomer, unassigned) [Example 483, (*R)-3-(6-((1′,1′-Dioxidospiro[cyclopropane-1,4′-pyrido[2,3-b][1,4,5]oxathiazepin]-2′(3′H)-yl)methyl)-5-methylpyridin-2-yl)-3-(8-methyl-3-(trifluoromethyl)-[1,2,4]triazolo[4,3-a]pyridin-7-yl)propanoic Acid] | < 1 | 3450 |
| Cc1ccc([C@@H](CC(=O)O)c2ccn3c(C(F)(F)F)nnc3c2C)nc1CN1CC2(COC2)Oc2ccccc2S1(=O)=O (single isomer, unassigned) [Example 485, (*S)-3-(6-((1,1-dioxidospiro[benzo[b][1,4,5]oxathiazepine-4,3′-oxetan]-2(3H)-yl)methyl)-5-methylpyridin-2-yl)-3-(8-methyl-3-(trifluoromethyl)-[1,2,4]triazolo[4,3-a]pyridin-7-yl)propanoic Acid] | < 1 | 156 |
| Cc1ccc([C@H](CC(=O)O)c2ccn3c(C(F)(F)F)nnc3c2C)nc1CN1CC2(COC2)Oc2ccccc2S1(=O)=O (single isomer, unassigned) [Example 486, (*R)-3-(6-((1,1-dioxidospiro[benzo[b][1,4,5]oxathiazepine-4,3′-oxetan]-2(3H)-yl)methyl)-5-methylpyridin-2-yl)-3-(8-methyl-3-(trifluoromethyl)-[1,2,4]triazolo[4,3-a]pyridin-7-yl)propanoic Acid] | 1.83 | 333 |
